The subject of assay [1] is luciferase reporter construct containing a UGA premature termination codon. In words: cell-based luciferase reporter assay (nonsense suppression). The following applies: UGA premature termination codon luciferase reporter stably transfected in 293T Human Embryonic Kidney cells; qualitative potency/efficacy of protein synthesis; gentamicin internal standard. The arrangement: key: Compounds which were found to have either or both very high potency and very high efficacy of protein synthesis are classified as “***”; Compounds which were found to have significant potency and/or efficacy of protein synthesis were classified as “**”; compounds which were found to have potency and/or efficacy of protein synthesis were classified as “*”. As to the method:
Activity measurements in Table 1 were performed in a cell-based luciferase reporter assay (as described in Section 4.2) comprising a luciferase reporter construct containing a UGA premature termination codon that was stably transfected in 293T Human Embryonic Kidney cells. Gentamicin, a small molecule known to allow readthrough of premature termination codons, was used as an internal standard. Activity measurements are based on the qualitative ratio between the minimum concentration of compound required to produce a given protein in a cell versus the amount of protein produced by the cell at that concentration.
The test compounds identified in the nonsense suppression assay (for convenience referred to herein as a compound of the invention) can be tested for biological activity using host cells containing or engineered to contain the target RNA element coupled to a functional readout system. For example, the lead compound can be tested in a host cell engineered to contain the RNA with the premature translation termination codon controlling the expression of a reporter gene. In this example, the lead compounds are assayed in the presence or absence of the RNA with the premature translation termination codon. Compounds that modulate premature translation termination and/or nonsense-mediated mRNA decay in vivo will result in increased expression of the full-length gene, i.e., past the premature termination codon. Alternatively, a phenotypic or physiological readout can be used to assess activity of the target RNA with the premature translation termination codon in the presence and absence of the lead compound. Both the in vitro and in vivo nonsense suppression assays used herein and as described in International Patent Publication WO 01/44516, which is incorporated by reference herein in its entirety, can be used to identify lead compounds and can also be used to determine an EC50 for the lead compounds.
A stable cell line harboring the UGA nonsense-containing luciferase gene is treated with a test compound. Cells are grown in standard medium supplemented with 1% penicillin-streptomycin (P/S) and 10% fetal bovine serum (FBS) to 70% confluency and split 1:1 the day before treatment. The next day, cells are trypsinized and 40,000 cells are added to each well of a 96-well tissue culture dish. Serial dilutions of each compound are prepared to generate a six-point dose response curve spanning 2 logs (30 μM to 0.3 μM). The final concentration of the DMSO solvent remains constant at 1% in each well. Cells treated with 1% DMSO serve as the background standard, and cells treated with gentamicin serve as a positive control.
Background: In a reporter assay the amount or activity of a reporter protein is the signal.

Assay [2] has as its system lysosomal tripeptidyl-peptidase 1 (TPP-I). As to conditions: patient-derived LINCL cell line, compound heterozygous for Arg208Stop and a different rare nonsense mutation; Sleat et al. 2001; cited from earlier work.

For the compound `Nc1ncnc(N[C@H]2O[C@H](CO)[C@@H](O)[C@H]2O)c1[N+](=O)[O-]` [Compound 22, 6-amino-5-nitro-4-(α-D-ribofuranosylamino)-pyrimidine], in assay [1], the Activity result is “***”. Regarding `COC(=O)c1c(Cl)ncnc1N[C@@H]1O[C@H](CO)[C@@H](O)[C@H]1O` [Compound 26, Methyl 6-chloro-4-(β-D-ribofuranosylamino)pyrimidine-5-carboxylate], the Activity in assay [1] stood at 0. As to `COC(=O)c1c(N)ncnc1N[C@H]1O[C@H](CO)[C@@H](O)[C@H]1O` [Compound 27, Methyl 6-amino-4-(α-D-ribofuranosylamino)pyrimidine-5-carboxylate], the Activity entry in assay [1] is “*”. Still for that read-out and setting: the result for `Nc1ncnc(N[C@H]2C[C@@H](CO)[C@H](O)[C@@H]2O)c1[N+](=O)[O-]` [Compound 7, (1S,2R,3S,5S)-3-(6-Amino-5-nitro-pyrimidin-4-ylamino)-5-hydroxymethyl-cyclopentane-1,2-diol] reads 0; that for `Nc1ncnc(N[C@@H]2C[C@H](CO)[C@@H](O)[C@H]2O)c1[N+](=O)[O-]` [Compound 6, (1R,2S,3R,5R)-3-(6-Amino-5-nitro-pyrimidin-4-ylamino)-5-hydroxymethyl-cyclopentane-1,2-diol], 0. In the case of gentamicin, the “normal levels of TPP-I maximally restored” value in assay [2] was “approximately 7%”.

Take `Nc1ncnc(N[C@@H]2O[C@H](COC(=O)c3ccccc3)[C@@H](OC(=O)c3ccccc3)[C@H]2OC(=O)c2ccccc2)c1[N+](=O)[O-]` [Compound 24, 6-Amino-5-nitro-4-[(2,3,5-tri-O-benzoyl-β-D-ribofuranosyl)amino]pyrimidine]: the Activity entry in assay [1] was “**”.
